Laboratory results taken from ChEMBL document CHEMBL1201862, “PubChem BioAssay data set” (2004).
The source made the active and inactive calls.

Tests used:
BJ [1] = assay: cells; assay type: functional, cell-based; conditions: Homo sapiens
cells = assay type: functional
[2] = target: Heat shock protein HSP 90-alpha (Homo sapiens, UniProt P07900); assay type: functional, organism-based
BJ [3] = assay: growth inhibition of engineered Ras-driven BJ cells – cell-based, alamar blue fluorescence, cherrypicked samples, dose response (AID 2631); assay type: functional; conditions: Homo sapiens;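 further: confirmatory dose-response assay in RAS-dependent BJ fibroblasts engineered with TERT, LT and ST, with cytotoxicity read by fluorescence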
[4] = luciferase reporter signal suppression in cells – H4 neuroglioma cells, luminescence, dose response (AID 1990); assay type: functional, cell-based
Paired box protein Pax-8 = Paired box protein Pax-8 (Homo sapiens, UniProt Q06710); assay: PAX8 transcriptional activity inhibition in RMG-I – RMG-I cells, luciferase, cherry-pick, dose response (AID 687027); assay type: functional, cell-based;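 further: luciferase reporter driven by Pax8 target thyroperoxidase promoter measured by SteadyGlo luminescence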
Streptokinase A = target: T1, Streptokinase A (Streptococcus pyogenes serotype M1, UniProt P10520); assay: viability-normalized secreted streptokinase activity reduction – plasminogen activation absorbance, OD405, dose response (AID 1914); assay type: functional, Streptococcus pyogenes M1 GAS;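 further: secreted streptokinase activity via plasminogen activation per viability signal from cell pellet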
T1 sequence (P10520 whole entry): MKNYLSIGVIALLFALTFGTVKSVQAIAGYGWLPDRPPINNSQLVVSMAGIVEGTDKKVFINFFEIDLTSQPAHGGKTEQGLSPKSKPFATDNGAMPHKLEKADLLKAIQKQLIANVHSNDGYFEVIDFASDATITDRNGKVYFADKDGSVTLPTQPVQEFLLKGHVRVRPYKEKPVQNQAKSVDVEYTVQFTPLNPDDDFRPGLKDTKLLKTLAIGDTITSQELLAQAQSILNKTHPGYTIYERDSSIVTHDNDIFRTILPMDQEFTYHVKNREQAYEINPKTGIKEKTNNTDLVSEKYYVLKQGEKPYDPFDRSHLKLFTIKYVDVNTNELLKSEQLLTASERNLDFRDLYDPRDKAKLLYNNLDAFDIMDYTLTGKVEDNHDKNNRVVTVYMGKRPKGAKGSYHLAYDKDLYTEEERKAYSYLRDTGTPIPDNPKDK

Nonstructural protein 1 = Nonstructural protein 1 (Influenza A virus, UniProt Q194T2); assay type: functional, Influenza A virus (A/California/07/2009(H1N1))
[5] = target: ALK tyrosine kinase receptor (Homo sapiens, UniProt Q9UM73); assay type: functional;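 further: ALK tested as one member of a kinase panel screen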
[6] = target: Testis-specific serine/threonine-protein kinase 2 (Homo sapiens, UniProt Q96PF2); assay type: functional;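 further: part of the Navigating the Kinome panel, target entry STK22B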
[7] = target: Serine/threonine-protein kinase Chk2 (Homo sapiens, UniProt O96017); assay type: functional;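 further: CHEK2 entry within a kinome-wide screening panel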
SRSF protein kinase 1 = SRSF protein kinase 1 (Homo sapiens, UniProt Q96SB4); assay type: functional;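 further: measured as one member of a kinome-wide kinase profiling panel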
[8] = target: Cell division cycle 7-related protein kinase (Homo sapiens, UniProt O00311); assay type: functional;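 further: value obtained from a kinome-wide kinase panel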
[9] = target: Serine/threonine-protein kinase TAO1 (Homo sapiens, UniProt Q7L7X3); assay type: functional
[10] = target: Homeodomain-interacting protein kinase 2 (Homo sapiens, UniProt Q9H2X6); assay type: functional;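 further: measured within a kinome-wide kinase profiling panel, HIPK2 being one panel member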
[11] = target: MAP/microtubule affinity-regulating kinase 3 (Homo sapiens, UniProt P27448); assay type: functional;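 further: MARK3 affinity measured as one member of a kinome panel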
[12] = target: High affinity nerve growth factor receptor (Homo sapiens, UniProt P04629); assay type: functional;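 further: NTRK1 tested as one member of a kinome-wide profiling panel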
[13] = target: Protein-tyrosine kinase 2-beta (Homo sapiens, UniProt Q14289); assay type: functional
[14] = target: Protein kinase C gamma type (Homo sapiens, UniProt P05129); assay type: functional
Focal adhesion kinase 1 = Focal adhesion kinase 1 (Homo sapiens, UniProt Q05397); assay type: functional;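 further: measured as one member of a kinome panel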
[15] = target: Interleukin-1 receptor-associated kinase 1 (Homo sapiens, UniProt P51617); assay type: functional;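 further: IRAK1 tested as one member of a kinome panel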
[16] = target: RAC-alpha serine/threonine-protein kinase (Homo sapiens, UniProt P31749); assay type: functional;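 further: AKT1 affinity measured as one member of a kinome-wide kinase profiling panel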
[17] = target: Fibroblast growth factor receptor 3 (Homo sapiens, UniProt P22607); assay type: functional
[18] = target: Dual specificity protein kinase CLK4 (Homo sapiens, UniProt Q9HAZ1); assay type: functional
[19] = target: Serine/threonine-protein kinase BRSK1 (Homo sapiens, UniProt Q8TDC3); assay type: functional;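 further: measured within a kinome-wide kinase panel, with the target listed as KIAA1811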
[20] = target: Dual specificity tyrosine-phosphorylation-regulated kinase 1A (Homo sapiens, UniProt Q13627); assay type: functional;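 further: measured against DYRK1A as one member of a broad kinome profiling panel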
[21] = target: Tyrosine-protein kinase receptor UFO (Homo sapiens, UniProt P30530); assay type: functional

Sequence of Homeodomain-interacting protein kinase 2 (Q9H2X6 whole entry): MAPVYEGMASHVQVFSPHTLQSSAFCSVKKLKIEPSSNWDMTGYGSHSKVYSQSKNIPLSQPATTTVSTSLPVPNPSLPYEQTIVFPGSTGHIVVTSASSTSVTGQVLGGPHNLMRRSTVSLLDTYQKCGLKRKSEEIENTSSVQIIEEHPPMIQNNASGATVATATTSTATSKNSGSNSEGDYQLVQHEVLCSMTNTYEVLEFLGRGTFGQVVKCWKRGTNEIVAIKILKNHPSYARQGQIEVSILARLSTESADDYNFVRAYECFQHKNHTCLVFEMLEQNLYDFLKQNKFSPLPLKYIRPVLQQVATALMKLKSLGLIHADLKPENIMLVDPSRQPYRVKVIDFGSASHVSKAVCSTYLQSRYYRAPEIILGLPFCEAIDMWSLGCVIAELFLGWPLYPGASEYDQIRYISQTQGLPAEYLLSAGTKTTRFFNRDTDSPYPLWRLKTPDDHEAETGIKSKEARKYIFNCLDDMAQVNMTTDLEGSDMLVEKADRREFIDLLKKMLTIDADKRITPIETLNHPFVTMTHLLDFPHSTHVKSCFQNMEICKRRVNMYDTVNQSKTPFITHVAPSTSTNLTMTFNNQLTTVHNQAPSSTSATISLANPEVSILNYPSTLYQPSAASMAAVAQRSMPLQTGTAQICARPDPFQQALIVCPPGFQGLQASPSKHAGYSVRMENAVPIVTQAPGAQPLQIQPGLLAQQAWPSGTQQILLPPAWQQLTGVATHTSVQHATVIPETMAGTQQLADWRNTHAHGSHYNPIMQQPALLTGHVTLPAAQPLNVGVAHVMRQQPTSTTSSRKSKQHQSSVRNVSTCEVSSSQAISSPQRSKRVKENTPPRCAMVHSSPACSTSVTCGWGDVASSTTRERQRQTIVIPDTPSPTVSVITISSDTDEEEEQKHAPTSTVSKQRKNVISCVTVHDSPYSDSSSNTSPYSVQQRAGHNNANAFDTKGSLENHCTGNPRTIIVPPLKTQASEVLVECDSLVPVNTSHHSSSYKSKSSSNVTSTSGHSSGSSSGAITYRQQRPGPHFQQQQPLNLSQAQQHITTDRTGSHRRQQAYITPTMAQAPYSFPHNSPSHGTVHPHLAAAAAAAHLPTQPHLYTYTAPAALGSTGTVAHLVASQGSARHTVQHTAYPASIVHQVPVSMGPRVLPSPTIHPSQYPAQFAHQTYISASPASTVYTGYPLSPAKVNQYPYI
Sequence of Serine/threonine-protein kinase Chk2 (O96017 whole entry): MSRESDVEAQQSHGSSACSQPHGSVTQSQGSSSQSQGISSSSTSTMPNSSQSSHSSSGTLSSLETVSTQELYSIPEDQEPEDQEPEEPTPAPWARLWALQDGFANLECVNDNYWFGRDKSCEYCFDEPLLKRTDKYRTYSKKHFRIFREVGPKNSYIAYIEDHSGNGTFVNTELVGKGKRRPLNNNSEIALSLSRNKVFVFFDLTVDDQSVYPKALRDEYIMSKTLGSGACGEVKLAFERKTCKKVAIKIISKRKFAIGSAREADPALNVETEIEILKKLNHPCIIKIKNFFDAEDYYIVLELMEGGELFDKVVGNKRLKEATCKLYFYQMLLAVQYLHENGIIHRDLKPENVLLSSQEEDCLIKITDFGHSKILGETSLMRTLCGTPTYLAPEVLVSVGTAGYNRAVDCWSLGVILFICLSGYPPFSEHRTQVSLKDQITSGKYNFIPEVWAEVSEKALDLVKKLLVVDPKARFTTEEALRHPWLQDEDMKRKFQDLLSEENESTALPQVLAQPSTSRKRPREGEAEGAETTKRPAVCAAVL
Sequence of ALK tyrosine kinase receptor (Q9UM73 whole entry): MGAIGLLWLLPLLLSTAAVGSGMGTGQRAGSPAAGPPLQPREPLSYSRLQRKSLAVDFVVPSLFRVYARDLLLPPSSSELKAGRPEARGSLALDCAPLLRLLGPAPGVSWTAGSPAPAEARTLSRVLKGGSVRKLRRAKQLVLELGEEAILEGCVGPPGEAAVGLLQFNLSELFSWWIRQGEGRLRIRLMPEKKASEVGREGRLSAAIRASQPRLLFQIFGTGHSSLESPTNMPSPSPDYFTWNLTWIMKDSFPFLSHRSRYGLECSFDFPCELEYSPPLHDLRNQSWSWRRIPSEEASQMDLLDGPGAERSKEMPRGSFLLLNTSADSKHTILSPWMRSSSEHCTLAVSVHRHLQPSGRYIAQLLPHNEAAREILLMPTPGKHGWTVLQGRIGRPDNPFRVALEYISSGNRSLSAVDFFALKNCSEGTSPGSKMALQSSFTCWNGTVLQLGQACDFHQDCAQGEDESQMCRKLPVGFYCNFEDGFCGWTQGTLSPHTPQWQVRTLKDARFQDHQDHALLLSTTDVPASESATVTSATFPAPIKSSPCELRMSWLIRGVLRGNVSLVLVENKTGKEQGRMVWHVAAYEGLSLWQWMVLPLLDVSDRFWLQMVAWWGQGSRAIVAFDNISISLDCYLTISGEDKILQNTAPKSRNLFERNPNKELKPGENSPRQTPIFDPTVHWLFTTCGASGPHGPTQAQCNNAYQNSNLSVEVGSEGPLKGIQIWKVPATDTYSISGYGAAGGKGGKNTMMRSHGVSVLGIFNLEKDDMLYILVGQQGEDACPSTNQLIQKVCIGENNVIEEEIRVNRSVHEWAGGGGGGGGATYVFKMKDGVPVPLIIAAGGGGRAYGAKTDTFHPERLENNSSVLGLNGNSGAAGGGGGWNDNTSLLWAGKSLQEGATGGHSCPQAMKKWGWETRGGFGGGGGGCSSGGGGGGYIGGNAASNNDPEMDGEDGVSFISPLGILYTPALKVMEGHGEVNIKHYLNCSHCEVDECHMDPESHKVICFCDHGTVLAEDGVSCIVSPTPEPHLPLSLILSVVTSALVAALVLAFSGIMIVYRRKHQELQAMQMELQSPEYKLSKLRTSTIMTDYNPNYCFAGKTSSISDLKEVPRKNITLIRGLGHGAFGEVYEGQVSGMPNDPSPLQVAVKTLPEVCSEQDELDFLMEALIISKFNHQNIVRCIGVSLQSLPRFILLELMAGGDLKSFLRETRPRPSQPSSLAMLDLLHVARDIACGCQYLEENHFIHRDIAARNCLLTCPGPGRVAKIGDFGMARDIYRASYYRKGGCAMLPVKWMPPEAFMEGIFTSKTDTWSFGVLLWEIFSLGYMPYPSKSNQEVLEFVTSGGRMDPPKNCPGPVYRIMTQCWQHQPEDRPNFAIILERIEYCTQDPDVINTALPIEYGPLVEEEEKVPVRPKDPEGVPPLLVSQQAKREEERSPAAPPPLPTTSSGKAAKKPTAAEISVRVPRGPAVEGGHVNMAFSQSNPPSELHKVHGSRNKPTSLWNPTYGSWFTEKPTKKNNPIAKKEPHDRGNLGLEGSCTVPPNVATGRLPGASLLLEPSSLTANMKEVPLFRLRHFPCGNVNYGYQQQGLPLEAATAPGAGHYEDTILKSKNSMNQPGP
Sequence of Paired box protein Pax-8 (Q06710 whole entry): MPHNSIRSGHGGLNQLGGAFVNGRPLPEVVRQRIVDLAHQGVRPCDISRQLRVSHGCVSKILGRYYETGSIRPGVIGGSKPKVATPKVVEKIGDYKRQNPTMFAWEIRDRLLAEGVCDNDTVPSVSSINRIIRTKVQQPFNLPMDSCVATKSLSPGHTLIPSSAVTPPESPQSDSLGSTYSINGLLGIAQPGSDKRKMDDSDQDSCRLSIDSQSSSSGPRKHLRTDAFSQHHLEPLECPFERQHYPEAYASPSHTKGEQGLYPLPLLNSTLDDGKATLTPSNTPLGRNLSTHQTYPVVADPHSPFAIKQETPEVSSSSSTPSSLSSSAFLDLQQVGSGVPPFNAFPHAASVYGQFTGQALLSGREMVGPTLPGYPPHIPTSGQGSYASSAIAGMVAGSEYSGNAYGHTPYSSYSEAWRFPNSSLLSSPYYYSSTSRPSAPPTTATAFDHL
Sequence of Serine/threonine-protein kinase BRSK1 (Q8TDC3 whole entry): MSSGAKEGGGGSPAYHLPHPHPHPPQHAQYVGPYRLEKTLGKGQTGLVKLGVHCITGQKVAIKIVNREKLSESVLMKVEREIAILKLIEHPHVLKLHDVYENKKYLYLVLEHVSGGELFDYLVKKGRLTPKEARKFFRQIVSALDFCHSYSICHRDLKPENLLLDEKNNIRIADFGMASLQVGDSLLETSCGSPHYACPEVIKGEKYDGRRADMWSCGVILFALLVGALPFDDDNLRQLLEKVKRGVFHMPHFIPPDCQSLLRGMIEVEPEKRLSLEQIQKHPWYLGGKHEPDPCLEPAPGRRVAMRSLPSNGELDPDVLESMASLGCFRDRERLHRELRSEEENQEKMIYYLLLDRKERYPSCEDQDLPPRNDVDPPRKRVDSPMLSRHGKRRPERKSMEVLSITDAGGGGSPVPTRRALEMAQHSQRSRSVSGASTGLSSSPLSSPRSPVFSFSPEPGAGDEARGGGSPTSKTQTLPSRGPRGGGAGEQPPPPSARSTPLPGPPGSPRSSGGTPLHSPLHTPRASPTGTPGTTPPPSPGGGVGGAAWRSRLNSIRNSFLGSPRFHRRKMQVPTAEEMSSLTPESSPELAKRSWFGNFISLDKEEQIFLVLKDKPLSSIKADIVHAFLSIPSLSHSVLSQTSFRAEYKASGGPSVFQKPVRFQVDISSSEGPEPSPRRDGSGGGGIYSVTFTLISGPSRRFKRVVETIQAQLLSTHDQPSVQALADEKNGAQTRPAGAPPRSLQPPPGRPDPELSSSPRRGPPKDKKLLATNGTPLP
Sequence of Nonstructural protein 1 (Q194T2 whole entry): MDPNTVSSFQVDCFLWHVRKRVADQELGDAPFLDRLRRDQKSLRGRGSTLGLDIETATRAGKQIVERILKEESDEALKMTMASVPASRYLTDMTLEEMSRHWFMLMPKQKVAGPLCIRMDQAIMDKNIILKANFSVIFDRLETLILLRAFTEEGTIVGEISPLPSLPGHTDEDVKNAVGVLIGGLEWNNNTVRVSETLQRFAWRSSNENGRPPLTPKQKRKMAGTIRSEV

## O=[N+]([O-])c1c(Nc2ccccn2)cc(Cl)c2nonc12
BJ [1]
  EC50: 5.38 µM (active)
cells
  IC50: 0.32 µM (active)
[2]
  AC50: 1.93 µM (active)
BJ [3]
  EC50: 2.43 µM (active)

## CC[C@@H](C)[C@H](CNC)NC[C@@H](Cc1cccc2ccccc12)NCCc1cccc(C(F)(F)F)c1
[4]
  EC50: 8.36 µM (active)
Paired box protein Pax-8
  AC50: 11.9 µM (active)

## Cc1ccc(S(=O)(=O)/N=C2\C=C(Nc3cccc(C(=O)O)c3)C(=O)c3ccccc32)cc1
Streptokinase A
  EC50: 47.3 µM (active)
Nonstructural protein 1
  IC50: 19.9 µM (active)

## CC(C)(CO)CNc1nccc(-c2c(-c3ccc(F)cc3)nc3c(CC4CC4)nccn23)n1
[5]
  Ki: > 1.26 µM (inactive)
[6]
  Ki: > 1.58 µM (inactive)
[7]
  Ki: > 5.01 µM (inactive)
SRSF protein kinase 1
  Ki: > 7.94 µM (inactive)
[8]
  Ki: > 1.26 µM (inactive)
[9]
  Ki: 7.94 µM (active)
[10]
  Ki: > 3.16 µM (inactive)
[11]
  Ki: > 6.31 µM (inactive)
[12]
  Ki: > 2.51 µM (inactive)
[13]
  Ki: > 1.58 µM (inactive)
[14]
  Ki: > 7.94 µM (inactive)
Focal adhesion kinase 1
  Ki: > 1.58 µM (inactive)
[15]
  Ki: > 7.94 µM (inactive)
[16]
  Ki: > 7.94 µM (inactive)
[17]
  Ki: > 2 µM (inactive)
[18]
  Ki: 3.98 µM (active)
[19]
  Ki: > 10 µM (inactive)
[20]
  Ki: 2.51 µM (active)
[21]
  Ki: > 2 µM (inactive)
